{
  "source": "paper PMC10783114",
  "about": "“Establishment of a screening platform based on human coronavirus OC43 for the identification of microbial natural products with antiviral activity” (Microbiology Spectrum, 2023)",
  "key": {"[1]": {"test_system": "MRC-5 cells"}, "[2]": {"test_system": "HCoV-OC43", "assay": "RT-qPCR of extracellular HCoV-OC43 RNA in culture supernatants", "format": "cell-based, Human betacoronavirus OC43", "details": "72 h incubation", "procedure": "Viral RNA from supernatants was purified using the Macherey-Nagel Nucleospin RNA Kit. RT-qPCR was performed in a single step using the One-Step TB Green PrimeScript RT-PCR Kit II (Takara Bio). The HCoV-OC43 nucleocapsid gene was amplified with the following primers: the forward primer 5′ […]-3′ and the reverse primer 5′ […]-3′ ([27]). A standard curve was generated with purified HCoV-RNA (Vircell)."}, "[3]": {"test_system": "HCoV-OC43", "assay": "Resazurin-based CPE inhibition assay in HCoV-OC43-infected MRC-5 cells", "format": "cell-based, Human betacoronavirus OC43", "details": "for antiviral activity against HCoV-OC43 infection in MRC-5 cells (in words): tested in both assays (CPE inhibition and HCS)"}, "[4]": {"test_system": "HCoV-OC43", "assay": "High-content screening assay, anti-OC43 immunostaining of infected MRC-5 cells", "format": "cell-based, Human betacoronavirus OC43"}, "[5]": {"assay": "in vitro", "details": "human"}, "[6]": {"test_system": "MRC-5 cells", "assay": "Resazurin cytotoxicity assay in non-infected MRC-5 cells", "details": "MRC-5 cells"}, "[7]": {"assay": "Resazurin cytotoxicity assay in non-infected MRC-5 cells", "details": "human"}, "[8]": {"test_system": "MERS", "details": "marmosets infected with MERS ref 35; cited from earlier work"}, "[9]": {"test_system": "HCoV-OC43", "design": "method as in PMID 30918074", "details": "mouse model ref 29; cited from earlier work"}, "[10]": {"details": "Betacoronavirus 1, MRC5, MRC-5 infected with HCoV-OC43 at 0.1 MOI, 96 h with drug, 5 days post-infection, resazurin readout, read-out: EC50 (CPE inhibition assay)"}, "[11]": {"details": "Betacoronavirus 1, OC43, MRC5, infected MRC-5, 72 h incubation with drug, 4 days post-infection, read-out: EC50 (HCS assay)"}, "[12]": {"details": "Betacoronavirus 1, OC43, MRC5, read-out: EC50 (HCS assay)"}, "[13]": {"details": "CC50, non-infected MRC-5 cells, 96 h incubation, resazurin"}},
  "note": "Where two headings read alike, the source gives them in different places. Non-standard residues stand in square brackets, D forms with d. Residues, ends and D or L forms follow the SMILES beside them. dLac(3-vinyl) = C=CC[C@@H](O)C(=O)O; dHica = CC(C)C[C@@H](O)C(=O)O; NMeV = CN[C@H](C(=O)O)C(C)C; NMeA = CN[C@@H](C)C(=O)O; βAla = NCCC(=O)O",
  "data": [
    {"smiles": "CCCCC/C=C\\C/C=C\\CCCCCCCC(=O)O", "note": "[Linoleic acid, linoleic acid]", "values": [
      {"measurement": "toxicity against MRC-5 host cells (in words)", "setting": "[1]", "value": "no evident toxicity"},
      {"measurement": "HCoV-OC43 RNA load in supernatant", "setting": "[2]; 15 µM", "value": "below 50%"},
      {"measurement": "EC50", "setting": "[3]; [10]", "value": 25.6, "unit": "µM"},
      {"measurement": "antiviral activity against HCoV-OC43 infection in MRC-5 cells (in words)", "setting": "[3]", "value": "showed activity"},
      {"measurement": "EC50", "setting": "[4]; [11]", "value": 18.3, "unit": "µM"},
      {"measurement": "CC50 at 96 h", "setting": "[5]", "value": "> 40", "unit": "µM"}
    ]},
    {"smiles": "O=C1OCC(Cc2ccccc2)=C1c1ccccc1", "note": "[Gymnoascolide A, gymnoascolide A]", "values": [
      {"measurement": "HCoV-OC43 RNA level in supernatant", "setting": "[2]; 40 µM", "value": "under 20%"},
      {"measurement": "HCoV-OC43 RNA level (viral load) in supernatant", "setting": "[2]; 80 µM", "value": "below 5%"},
      {"measurement": "antiviral activity against HCoV-OC43 infection in MRC-5 cells (in words)", "setting": "[3]", "value": "showed activity"},
      {"measurement": "toxicity against MRC-5 host cells (in words)", "setting": "[6]", "value": "no evident toxicity"},
      {"measurement": "EC50", "setting": "[4]; infected MRC-5, 72 h incubation with drug, 4 days post-infection, read-out: EC50 (HCS assay)", "value": 20.6, "unit": "µM"}
    ]},
    {"smiles": "CCN(CC)CCCC(C)Nc1ccnc2cc(Cl)ccc12", "note": "(stereo not drawn) [Chloroquine, chloroquine]", "values": [
      {"measurement": "EC50", "setting": "[3]; Betacoronavirus 1, OC43, MRC5, read-out: EC50 (CPE inhibition assay)", "value": 6.22, "unit": "µM"},
      {"measurement": "EC50", "setting": "[4]; [12]", "value": 1.23, "unit": "µM"}
    ]},
    {"smiles": "NC(=O)c1ncn([C@@H]2O[C@H](CO)[C@@H](O)[C@H]2O)n1", "note": "[Ribavirin, ribavirin]", "values": [
      {"measurement": "selectivity index", "setting": "[3]", "value": "~8"},
      {"measurement": "EC50", "setting": "[3]; [10]", "value": 118, "unit": "µM"},
      {"measurement": "antiviral activity against HCoV-OC43 infection in MRC-5 cells (in words)", "setting": "[3]", "value": "showed activity"},
      {"measurement": "CC50 at 96 h", "setting": "[7]; non-infected MRC-5 cells", "value": "> 800", "unit": "µM"},
      {"measurement": "EC50", "setting": "[4]; [12]", "value": 92.1, "unit": "µM"}
    ]},
    {"smiles": "C=CC[C@H]1OC(=O)CCNC(=O)[C@H](C)N(C)C(=O)[C@H](C(C)C)N(C)C(=O)[C@H]([C@@H](C)CC)NC(=O)[C@@H]2CCCN2C1=O", "note": "[Destruxin A, destruxin A] (cyclo([dLac(3-vinyl)]PI[NMeV][NMeA][βAla]))", "values": [
      {"measurement": "antiviral activity against HCoV-OC43 infection in MRC-5 cells (in words)", "setting": "[3]", "value": "did not have an effect"},
      {"measurement": "antiviral activity against HCoV-OC43 infection in MRC-5 cells (in words)", "setting": "[3]; listed as destruxin A", "value": "non-active"},
      {"measurement": "CC50 at 96 h", "setting": "[7]; [13]", "value": "~10", "unit": "µM"}
    ]},
    {"smiles": "CC[C@H](C)[C@@H]1NC(=O)[C@@H]2CCCN2C(=O)[C@@H](CC(C)C)OC(=O)CCNC(=O)[C@H](C)N(C)C(=O)[C@H](C(C)C)N(C)C1=O", "note": "[Destruxin B, destruxin B] (cyclo([dHica]PI[NMeV][NMeA][βAla]))", "values": [
      {"measurement": "antiviral activity against HCoV-OC43 infection in MRC-5 cells (in words)", "setting": "[3]", "value": "did not have an effect"},
      {"measurement": "antiviral activity against HCoV-OC43 infection in MRC-5 cells (in words)", "setting": "[3]; listed as destruxin B", "value": "non-active"},
      {"measurement": "CC50 at 96 h", "setting": "[7]; [13]", "value": "~10", "unit": "µM"}
    ]},
    {"smiles": "COc1c(C)c2c(c(O)c1C/C=C(\\C)CCC(=O)OCCN1CCOCC1)C(=O)OC2", "note": "[Mycophenolate mofetil, mycophenolate mofetil]", "values": [
      {"measurement": "side effects in vivo", "setting": "[8]", "value": "severe side effects"},
      {"measurement": "antiviral activity against HCoV-OC43 in a mouse model", "setting": "[9]", "value": "no antiviral activity"},
      {"measurement": "EC50", "setting": "[3]; [10]", "value": 20.7, "unit": "µM"},
      {"measurement": "antiviral activity against HCoV-OC43 infection in MRC-5 cells (in words)", "setting": "[3]", "value": "showed activity"},
      {"measurement": "EC50", "setting": "[4]; [11]", "value": 1.91, "unit": "µM"},
      {"measurement": "CC50", "setting": "[5]", "value": "> 200", "unit": "µM"}
    ]}
  ]
}
